Data reported in ChEMBL document CHEMBL5303304, “EUbOPEN Chemogenomics Library - IncuCyte” (2023).

Assays:
Format in all cases: toxicity, cell-based
HEK-293T = assay: Incucyte cell viability with HEK293T; conditions: human, 10 µM, compound concentration 10 uM
Fibroblast = assay: Incucyte cell viability with human fibroblast; conditions: 10 µM, compound concentration 10 uM
U2OS = assay: Incucyte cell viability with U2OS; conditions: human, 10 µM, compound concentration 10 uM
Further: unitless GR value; below 1 slowed growth and below 0 cell loss.

Row | SMILES | Growth Rate (HEK-293T; 24 h, replicate number 1) | Growth Rate (Fibroblast; 0 h, replicate number 1) | Growth Rate (Fibroblast; 6 h, replicate number 1) | Growth Rate (Fibroblast; 12 h, replicate number 1) | Growth Rate (Fibroblast; 24 h, replicate number 1) | Growth Rate (Fibroblast; 24 h, replicate number 2) | Growth Rate (U2OS; 0 h, replicate number 1) | Growth Rate (U2OS; 6 h, replicate number 1) | Growth Rate (U2OS; 6 h, replicate number 2) | Growth Rate (U2OS; 12 h, replicate number 1) | Growth Rate (U2OS; 12 h, replicate number 2) | Growth Rate (U2OS; 18 h, replicate number 1) | Growth Rate (U2OS; 24 h, replicate number 1) | Growth Rate (HEK-293T; 0 h, replicate number 1) | Growth Rate (HEK-293T; 0 h, replicate number 2) | Growth Rate (Fibroblast; 0 h, replicate number 2) | further results
1 | C#Cc1cnc2[nH]cc(-c3cccc4c3CCN4C(=O)[C@@H]3CCCN3C#N)c2c1 | -0.29 | -1 | -0.83 | -0.63 | -0.36 | -0.41 | 0.82 | 0.06 | 0.45 | -0.58 | -0.19 | -0.68 | -0.58 | – | – | – | Growth Rate (HEK-293T; 6 h, replicate number 1): -0.95; Growth Rate (HEK-293T; 6 h, replicate number 2): -0.98; Growth Rate (HEK-293T; 12 h, replicate number 1): -0.75; Growth Rate (HEK-293T; 12 h, replicate number 2): -0.78; Growth Rate (HEK-293T; 18 h, replicate number 1): -0.46; Growth Rate (HEK-293T; 18 h, replicate number 2): -0.5; Growth Rate (HEK-293T; 24 h, replicate number 2): -0.34; Growth Rate (Fibroblast; 6 h, replicate number 2): -1; Growth Rate (Fibroblast; 12 h, replicate number 2): -0.69; Growth Rate (Fibroblast; 18 h, replicate number 1): -0.48; Growth Rate (Fibroblast; 18 h, replicate number 2): -0.58; Growth Rate (U2OS; 18 h, replicate number 2): -0.52; Growth Rate (U2OS; 24 h, replicate number 2): -0.56
2 | Nc1nc2cc(-c3cc(Cl)ccc3Oc3cc(F)c(S(=O)(=O)Nc4ncns4)cc3F)ccc2[nH]1 | – | – | -0.93 | – | 0.45 | 0.9 | -0.72 | 0.51 | – | 0.84 | – | 0.76 | 0.89 | 0.66 | 0.52 | -0.38 | Growth Rate (U2OS; 0 h, replicate number 2): 0.2
3 | CS(=O)(=O)NCC[C@H](NC(=O)c1cncc2c1cnn2-c1ccc(F)cc1)c1ccnc(S(C)(=O)=O)c1 [BI 9307] | 1 | -0.98 | 0.89 | 0.91 | – | – | – | 0.83 | 0.9 | – | 0.91 | – | – | -0.12 | 0.23 | -0.94 | –
